Where a SMILES comes first, the peptide text is derived from it. [ ]: non-standard residue; d: D form. Phe(3-Br) = N[C@@H](Cc1cccc(Br)c1)C(=O)O; NMeNle = CCCC[C@H](NC)C(=O)O
Assays:
[1] = target: T1, CCK-B receptors (CHO-CCK) (Homo sapiens, UniProt P32239); assay: Calcium flux (Fluo-8) agonist test on CHO-CCK model cells; type: cell-based; settings: for EC50: CHO-CCK cells, compound alone; for Agonistic Activity (%) at 10 μM: compound at 10 μM, percentage of signal of 20 nM CCK8 alone
T1 construct: expressed in transfected cells; host or cells: CHO (CHO-CCK model cells)
T1 sequence (P32239 1-447): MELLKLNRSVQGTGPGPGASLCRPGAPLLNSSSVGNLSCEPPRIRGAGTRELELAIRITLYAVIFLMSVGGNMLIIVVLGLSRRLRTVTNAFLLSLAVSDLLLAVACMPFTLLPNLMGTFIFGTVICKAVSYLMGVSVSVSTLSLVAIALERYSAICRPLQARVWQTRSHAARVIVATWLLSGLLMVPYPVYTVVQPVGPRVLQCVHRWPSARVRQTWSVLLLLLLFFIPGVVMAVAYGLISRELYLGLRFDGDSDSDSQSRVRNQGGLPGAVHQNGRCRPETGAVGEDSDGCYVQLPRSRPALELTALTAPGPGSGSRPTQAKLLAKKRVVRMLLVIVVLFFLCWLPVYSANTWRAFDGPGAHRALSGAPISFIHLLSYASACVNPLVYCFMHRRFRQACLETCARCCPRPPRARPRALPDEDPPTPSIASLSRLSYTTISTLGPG
Outline: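 Agonist-mode Fluo-8 calcium flux read on CHO-CCK cells after dye loading 30 min at 37 °C plus 30 min at room temperature.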

[2] = target: T1, CCK-B receptors (CHO-CCK); assay: Calcium flux (Fluo-8) antagonist test on CHO-CCK model cells in presence of CCK8; type: cell-based
Procedure: The compound was formulated to a 10 mM mother liquor with DMSO, and then diluted into a series of 9 concentrations with a 3-fold gradient to form a 1000× stock solution. […] Prepare 1×Fluo-8 analysis buffer: mix 9 mL of HHBS, 1 mL of 10× Pluronic F127 Plus and 20 μL of Fluo-8 thoroughly for later use. • 3. Add Fluo-8 dye working solution to the cell plate, 100 μL/well. First incubate in a 37° C. incubator for 30 min, and then take it out and incubate at room temperature in the dark for 30 min. • 4. In the process of incubating cells, the compounds to be detected were prepared with HHBS. • 5. […] The agonism/antagonism EC50 of the compound can be obtained by plotting the fitting curve with the agonism/antagonism percentage as Y-axis and the concentration of the compound as X-axis.

[3] = compound together with 10 nM CCK8
[4] = compound together with 10 nM CCK8, bound in μM

EC50 ([1]; 100% = 20 nM CCK8)	Agonistic Activity (%) at 10 μM [1]	EC50 [2, 3]	EC50 [2, 4]	EC50 ([1]; bound in μM)	SMILES
9.24 µM	50.72%	6.61 µM			CS(=O)(=O)CC[C@H](NC(=O)[C@H](N)Cc1c[nH]c2ccccc12)C(=O)N[C@@H](CC(=O)O)C(=O)N[C@@H](Cc1cccc(Cl)c1)C(N)=O [HT-60, D-Trp-Met(O2)-Asp-Phe(3-Cl)-NH2]
	36.66%		> 10 µM		CS(=O)(=O)CC[C@H](NC(=O)[C@H](N)Cc1c[nH]c2ccccc12)C(=O)N[C@@H](CC(=O)O)C(=O)N[C@@H](Cc1cccc(F)c1)C(N)=O [HT-61, D-Trp-Met(O2)-Asp-Phe(3-F)-NH2]
6.05 µM	48.46%	7.5 µM			CS(=O)(=O)CC[C@H](NC(=O)[C@H](N)Cc1c[nH]c2ccccc12)C(=O)N[C@@H](CC(=O)O)C(=O)N[C@@H](Cc1cccc(Br)c1)C(N)=O [HT-63, D-Trp-Met(O2)-Asp-Phe(3-Br)-NH2]
	8.35%		> 10 µM		CS(=O)(=O)CC[C@H](NC(=O)[C@H](N)Cc1c[nH]c2ccccc12)C(=O)N[C@@H](CC(=O)O)C(=O)N[C@@H](Cc1ccc(N=[N+]=[N-])cc1)C(N)=O [HT-65, D-Trp-Met(O2)-Asp-Phe(4-N3)-NH2]
1.51 µM	82.71%	2.62 µM			CS(=O)(=O)CC[C@H](NC(=O)[C@H](N)Cc1c[nH]c2ccccc12)C(=O)N[C@@H](CC(=O)O)C(=O)N[C@@H](Cc1cc(Cl)cc(Cl)c1)C(N)=O [HT-72, D-Trp-Met(O2)-Asp-Phe(3,5-DiCl)-NH2]
12.6 µM	55.41%	8.82 µM			CS(=O)(=O)CC[C@H](NC(=O)[C@H](N)Cc1c[nH]c2ccccc12)C(=O)N[C@@H](CC(=O)O)C(=O)N[C@@H](Cc1cc(F)cc(F)c1)C(N)=O [HT-73, D-Trp-Met(O2)-Asp-Phe(3,5-DIF)-NH2]
11 µM	55.05%	8.42 µM			CS(=O)(=O)CC[C@H](NC(=O)[C@H](N)Cc1c[nH]c2ccccc12)C(=O)N[C@@H](CC(=O)O)C(=O)N[C@@H](Cc1cc(F)c(F)c(F)c1)C(N)=O [HT-74, D-Trp-Met(O2)-Asp-Phe(3,4,5-TriF)-NH2]
	20.83%		~10 µM		COC(=O)C[C@H](NC(=O)[C@H](CCSC)NC(=O)[C@H](N)Cc1c[nH]c2ccccc12)C(=O)N[C@@H](Cc1cccc(F)c1)C(N)=O [HT-78, D-Trp-Met-Asp(Ome)-Phe(3-F)-NH2]
2.29 µM	38.37%	1.99 µM			COC(=O)C[C@H](NC(=O)[C@H](CCSC)NC(=O)[C@H](N)Cc1c[nH]c2ccccc12)C(=O)N[C@@H](Cc1cccc(I)c1)C(N)=O [HT-79, D-Trp-Met-Asp(Ome)-Phe(3-I)-NH2]
0.572 µM	57.83%	0.807 µM			COC(=O)C[C@H](NC(=O)[C@H](CCSC)NC(=O)[C@H](N)Cc1c[nH]c2ccccc12)C(=O)N[C@@H](Cc1cccc(Br)c1)C(N)=O [HT-80, D-Trp-Met-Asp(Ome)-Phe(3-Br)-NH2]
	28.73%	9.98 µM			COC(=O)C[C@H](NC(=O)[C@H](CCSC)NC(=O)[C@H](N)Cc1c[nH]c2ccccc12)C(=O)N[C@@H](Cc1ccc(F)cc1)C(N)=O [HT-87, D-Trp-Met-Asp(Ome)-Phe(4-F)-NH2]
3.21 µM	44.86%	3.62 µM			COC(=O)C[C@H](NC(=O)[C@H](CCSC)NC(=O)[C@H](N)Cc1c[nH]c2ccccc12)C(=O)N[C@@H](Cc1cc(Cl)cc(Cl)c1)C(N)=O [HT-89, D-Trp-Met-Asp(Ome)-Phe(3,5-DiCl)-NH2]
9.3 µM	59.76%	5.91 µM			COC(=O)C[C@H](NC(=O)[C@H](CCSC)NC(=O)[C@H](N)Cc1c[nH]c2ccccc12)C(=O)N[C@@H](Cc1cc(F)cc(F)c1)C(N)=O [HT-90, D-Trp-Met-Asp(Ome)-Phe(3,5-DiF)-NH2]
1.63 µM			> 10 µM		CCCC[C@@H](C(=O)N[C@@H](CC(=O)O)C(=O)N[C@@H](Cc1cccc(Br)c1)C(N)=O)N(C)C(=O)[C@@H](Cc1c[nH]c2ccccc12)NC(C)=O [HT-179, Ac-D-Trp-(N-Me-Nle)-Asp-Phe(3-Br)-NH2] (Ac-[dW][NMeNle]D[Phe(3-Br)]-NH2)
0.447 µM		3.56 µM			CSCC[C@H](NC(=O)[C@@H](Cc1ccccc1)NC(C)=O)C(=O)N[C@@H](CC(=O)O)C(=O)N[C@@H](Cc1cccc(Br)c1)C(N)=O [HT-180, Ac-D-Phe-Met-Asp-Phe(3-Br)-NH2] (Ac-[dF]MD[Phe(3-Br)]-NH2)
3.9 µM			> 10 µM		CSCC[C@H](NC(=O)[C@@H](Cc1cc[nH]c1)NC(C)=O)C(=O)N[C@@H](CC(=O)O)C(=O)N[C@@H](Cc1cccc(Br)c1)C(N)=O [HT-181, Ac-D-His-Met-Asp-Phe(3-Br)-NH2]
0.421 µM		3.3 µM			CSCC[C@H](NC(=O)[C@@H](Cc1ccc(O)cc1)NC(C)=O)C(=O)N[C@@H](CC(=O)O)C(=O)N[C@@H](Cc1cccc(Br)c1)C(N)=O [HT-182, Ac-D-Tyr-Met-Asp-Phe(3-Br)-NH2] (Ac-[dY]MD[Phe(3-Br)]-NH2)
4.46 µM		9.41 µM			CSCC[C@H](NC(=O)[C@@H](CC(C)C)NC(C)=O)C(=O)N[C@@H](CC(=O)O)C(=O)N[C@@H](Cc1cccc(Br)c1)C(N)=O [HT-183, Ac-D-Leu-Met-Asp-Phe(3-Br)-NH2] (Ac-[dL]MD[Phe(3-Br)]-NH2)
4.32 µM		4.41 µM			CC(=O)N[C@H](Cc1c[nH]c2ccccc12)C(=O)N[C@@H](CCC(N)=O)C(=O)N[C@@H](CC(=O)O)C(=O)N[C@@H](Cc1cccc(Br)c1)C(N)=O [HT-184, Ac-D-Trp-Glu-Asp-Phe(3-Br)-NH2]
3.82 µM		12 µM			CC(=O)N[C@H](Cc1c[nH]c2ccccc12)C(=O)N[C@@H](CCC(N)=O)C(=O)N[C@@H](CC(=O)O)C(=O)N[C@@H](Cc1cccc(Br)c1)C(N)=O [HT-185, Ac-D-Trp-Gln-Asp-Phe(3-Br)-NH2]
1.34 µM		7.71 µM			CSCC[C@H](NC(=O)[C@@H](Cc1c[nH]c2ccccc12)NC(C)=O)C(=O)N[C@@H](CCC(=O)O)C(=O)N[C@@H](Cc1cccc(Br)c1)C(N)=O [HT-186, Ac-D-Trp-Met-Glu-Phe(3-Br)-NH2] (Ac-[dW]ME[Phe(3-Br)]-NH2)
			> 10 µM	> 10 µM	CSCC[C@H](NC(=O)[C@@H](Cc1c[nH]c2ccccc12)NC(C)=O)C(=O)N[C@@H](CC(N)=O)C(=O)N[C@@H](Cc1cccc(Br)c1)C(N)=O [HT-187, Ac-D-Trp-Met-Asn-Phe(3-Br)-NH2] (Ac-[dW]MN[Phe(3-Br)]-NH2)
1.84 µM		7.55 µM			CSCC[C@H](NC(=O)[C@@H](Cc1c[nH]c2ccccc12)NC(C)=O)C(=O)N[C@@H](CCCCN)C(=O)N[C@@H](Cc1cccc(Br)c1)C(N)=O [HT-188, Ac-D-Trp-Met-Lys-Phe(3-Br)-NH2] (Ac-[dW]MK[Phe(3-Br)]-NH2)
1.99 µM		5.95 µM			CSCC[C@H](NC(=O)[C@@H](Cc1c[nH]c2ccccc12)NC(C)=O)C(=O)N[C@@H](Cc1c[nH]cn1)C(=O)N[C@@H](Cc1cccc(Br)c1)C(N)=O [HT-189, Ac-D-Trp-Met-His-Phe(3-Br)-NH2] (Ac-[dW]MH[Phe(3-Br)]-NH2)
4.75 µM		6.16 µM			CSCC[C@H](NC(=O)[C@@H](Cc1c[nH]c2ccccc12)NC(C)=O)C(=O)N[C@@H](CC(C)C)C(=O)N[C@@H](Cc1cccc(Br)c1)C(N)=O [HT-190, Ac-D-Trp-Met-Leu-Phe(3-Br)-NH2] (Ac-[dW]ML[Phe(3-Br)]-NH2)
			> 10 µM	> 10 µM	CSCC[C@H](NC(=O)[C@H](Cc1c[nH]c2ccccc12)NC(C)=O)C(=O)N[C@@H](CC(=O)O)C(=O)N[C@@H](Cc1c[nH]cn1)C(N)=O [HT-191, Ac-Trp-Met-Asp-His-NH2] (Ac-WMDH-NH2)
		8.76 µM		> 10 µM	CSCC[C@H](NC(=O)[C@H](Cc1c[nH]c2ccccc12)NC(C)=O)C(=O)N[C@@H](CC(=O)O)C(=O)N[C@@H](CC(C)C)C(N)=O [HT-192, Ac-Trp-Met-Asp-Leu-NH2] (Ac-WMDL-NH2)
0.000814 µM		0.057 µM			CSCC[C@H](NC(=O)[C@H](Cc1c[nH]c2ccccc12)NC(C)=O)C(=O)N[C@@H](CC(=O)O)C(=O)N[C@@H](Cc1c[nH]c2ccccc12)C(N)=O [HT-193, Ac-Trp-Met-Asp-Trp-NH2] (Ac-WMDW-NH2)
		2.22 µM		> 10 µM	CSCC[C@H](NC(=O)[C@H](Cc1c[nH]c2ccccc12)NC(C)=O)C(=O)N[C@@H](CC(=O)O)C(=O)N[C@@H](CCCCN)C(N)=O [HT-194, Ac-Trp-Met-Asp-Lys-NH2] (Ac-WMDK-NH2)
